Reference: US20260284028A1, “FUSED BICYCLIC HETEROCYCLYL COMPOUNDS AS CCR4 MODULATORS” (AURIGENE ONCOLOGY LIMITED, priority 2023, published 2026)
Where two headings read alike, the source gives them in different places.

Target: T1, CCR4 (Homo sapiens, UniProt P51679)
T1 construct: expressed in transfected cells; host or cells: CHO-K1
T1 sequence (P51679 1-360): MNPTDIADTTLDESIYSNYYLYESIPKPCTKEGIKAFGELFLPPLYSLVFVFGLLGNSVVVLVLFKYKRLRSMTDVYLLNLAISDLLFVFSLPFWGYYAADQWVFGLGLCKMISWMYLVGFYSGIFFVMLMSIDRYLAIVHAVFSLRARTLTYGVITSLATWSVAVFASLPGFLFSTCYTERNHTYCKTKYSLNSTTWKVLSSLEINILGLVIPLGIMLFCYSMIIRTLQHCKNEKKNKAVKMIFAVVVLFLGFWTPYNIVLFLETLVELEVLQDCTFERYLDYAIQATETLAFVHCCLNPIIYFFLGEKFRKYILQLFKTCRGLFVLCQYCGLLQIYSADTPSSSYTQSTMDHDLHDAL
Assay: β-Arrestin recruitment assay (CHO-K1 CCR4 β-Arrestin cells stimulated with recombinant human CCL22)
Type: cell-based
Details: CCL22 10 nM stimulation; for IC50: read-out: CCR4 antagonistic activity IC50 (μM) in range; for inhibition: read-out: % inhibition at 5 μM/30 μM (% E-Max)
Experimental: CHO-K1 CCR4 β-Arrestin cells were seeded and incubated overnight at 37° C. in a CO2 incubator for adherence. Next day, cells were pretreated with various concentrations of CCR4 modulators for 30 mins at 37° C. The cells were stimulated with recombinant human CCL22 (10 nM) and further incubated for 90 mins. Working detection solution was added and incubated at room temperature for 1 hour after which the chemiluminescent signal was read using a luminometer.
Exemplary compounds of the present application were screened by the above-mentioned assay and the results were tabulated.

[1] = CHO-K1, read-out: % inhibition 30 μM (% E-Max)

Structure (SMILES): CC(Nc1c(F)ccc2nc(N3CC([C@H]4CCCN([C@H]5C[C@](C)(C(=O)O)C5)C4)C3)sc12)c1ncc(Cl)cc1Cl (mixture of isomers) [Compound 35, (1R,3r)-3-((3R)-3-(1-(7-((1-(3,5-dichloropyridin-2-yl)ethyl)amino)-6-fluorobenzo[d]thiazol-2-yl)azetidin-3-yl)piperidin-1-yl)-1-methylcyclobutane-1-carboxylic acid]
- IC50: < 0.25 µM
- inhibition [1]: 102%

Structure (SMILES): C[C@@H](Nc1c(F)ccc2nc(N3CC(C4CN([C@H]5C[C@](C)(C(=O)O)C5)CCO4)C3)sc12)c1ccc(Cl)cc1Cl (single isomer, unassigned) [Compound 27]
- IC50: 0.25 to 0.5 µM
- % inhibition at 5 μM/30 μM (% E-Max): 99% at 5 μM

Structure (SMILES): C[C@@H](Nc1c(F)ccc2nc(N3CC(C4CN([C@H]5C[C@](C)(C(=O)O)C5)CCO4)C3)sc12)c1ccc(Cl)cc1Cl (single isomer, unassigned) [Compound 28]
- % inhibition at 5 μM/30 μM (% E-Max): 72% at 5 μM

Structure (SMILES): C[C@@H](Nc1c(F)cnc2nc(N3CC([C@H]4CCCN([C@H]5C[C@](C)(C(=O)O)C5)C4)C3)sc12)c1ncc(Cl)cc1Cl (single isomer, unassigned) [Compound 42]
- IC50: 0.25 to 0.5 µM
- inhibition [1]: 103%

Structure (SMILES): C[C@H](Nc1c(F)cnc2nc(N3CC([C@H]4CCCN([C@H]5C[C@](C)(C(=O)O)C5)C4)C3)sc12)c1ncc(Cl)cc1Cl (single isomer, unassigned) [Compound 43]
- IC50: > 0.5 µM
- inhibition [1]: 95%

Structure (SMILES): C[C@@H](Nc1c(F)cnc2nc(N3CC([C@H]4CCCN([C@H]5C[C@](C)(C(=O)O)C5)C4)C3)sc12)c1ncc(F)cc1F (single isomer, unassigned) [Compound 45]
- IC50: > 0.5 µM
- inhibition [1]: 89%

Structure (SMILES): C[C@H](Nc1c(F)cnc2nc(N3CC([C@H]4CCCN([C@H]5C[C@](C)(C(=O)O)C5)C4)C3)sc12)c1ncc(F)cc1F (single isomer, unassigned) [Compound 46]
- IC50: 0.25 to 0.5 µM
- inhibition [1]: 99%

Structure (SMILES): C[C@H](Nc1c(OC(F)F)ccc2nc(N3CC([C@H]4CCCN([C@H]5C[C@](C)(C(=O)O)C5)C4)C3)sc12)c1ncc(Cl)cc1Cl (single isomer, unassigned) [Compound 49]
- IC50: 0.25 to 0.5 µM
- inhibition [1]: 99%

Structure (SMILES): C[C@@H](Nc1c(OC(F)F)ccc2nc(N3CC([C@H]4CCCN([C@H]5C[C@](C)(C(=O)O)C5)C4)C3)sc12)c1ncc(F)cc1F (single isomer, unassigned) [Compound 51]
- IC50: > 0.5 µM
- inhibition (CHO-K1, at 30 μM): 77%

Structure (SMILES): C[C@@H](Nc1c(Cl)ccc2nc(N3CC([C@H]4CCCN([C@H]5C[C@](C)(C(=O)O)C5)C4)C3)oc12)c1ccc(Cl)cc1Cl [Compound 1, (1R,3r)-3-((R)-3-(1-(6-Chloro-7-(((R)-1-(2,4-dichlorophenyl)ethyl)amino)benzo[d]oxazol-2-yl)azetidin-3-yl)piperidin-1-yl)-1-methylcyclobutane-1-carboxylic acid]
- IC50: < 0.25 µM
- inhibition (CHO-K1, at 30 μM): 103%

Structure (SMILES): C[C@@H](Nc1cccc2nc(N3CC([C@H]4CCCN([C@H]5C[C@](C)(C(=O)O)C5)C4)C3)oc12)c1ccc(Cl)cc1Cl [Compound 2, (1R,3r)-3-((R)-3-(1-(7-(((R)-1-(2,4-dichlorophenyl)ethyl)amino)benzo[d]oxazol-2-yl)azetidin-3-yl)piperidin-1-yl)-1-methylcyclobutane-1-carboxylic acid]
- IC50: < 0.25 µM
- inhibition (CHO-K1, at 30 μM): 99.5%

Structure (SMILES): C[C@@H](Nc1cccc2c1nc(N1CC([C@H]3CCCN([C@H]4C[C@](C)(C(=O)O)C4)C3)C1)n2C)c1ccc(Cl)cc1Cl [Compound 4]
- inhibition (CHO-K1, at 30 μM): 71%

Structure (SMILES): Cc1cc(N[C@H](C)c2ccc(Cl)cc2Cl)c2oc(N3CC([C@H]4CCCN([C@H]5C[C@](C)(C(=O)O)C5)C4)C3)nc2c1 [Compound 5]
- IC50: 0.25 to 0.5 µM
- inhibition (CHO-K1, at 30 μM): 102%

Structure (SMILES): C[C@@H](Nc1c(F)ccc2nc(N3CC([C@H]4CCCN([C@H]5C[C@](C)(C(=O)O)C5)C4)C3)oc12)c1ccc(Cl)cc1Cl [Compound 6]
- IC50: < 0.25 µM
- inhibition (CHO-K1, at 30 μM): 104%

Structure (SMILES): C[C@@H](Nc1cc(Cl)cc2nc(N3CC([C@H]4CCCN([C@H]5C[C@](C)(C(=O)O)C5)C4)C3)oc12)c1ccc(Cl)cc1Cl [Compound 7]
- IC50: 0.25 to 0.5 µM
- inhibition (CHO-K1, at 30 μM): 101%
